# In patent US8106190B2, “2-aminobenzamide derivatives” (Astellas Pharma Inc., priority 2005, dated 2012):
# Where a name gives a salt, the structure may show the parent alone.
# Columns and labels:
# human VR1 [1] = target: T1, human VR1 (Homo sapiens, UniProt Q8NER1); test: Receptor binding assay ([3H]RTX) using membrane of human VR1 stably expressing HEK 293 cell; settings: [3H]RTX binding, VR1/HEK 293 membrane sample, 37° C. 60 minutes; read-out: VR1 receptor binding inhibitory activity, IC50 value
# T1 construct: A complete length cDNA coding for human VR1 was obtained; expressed in transfected cells
# T1 sequence (Q8NER1 whole entry): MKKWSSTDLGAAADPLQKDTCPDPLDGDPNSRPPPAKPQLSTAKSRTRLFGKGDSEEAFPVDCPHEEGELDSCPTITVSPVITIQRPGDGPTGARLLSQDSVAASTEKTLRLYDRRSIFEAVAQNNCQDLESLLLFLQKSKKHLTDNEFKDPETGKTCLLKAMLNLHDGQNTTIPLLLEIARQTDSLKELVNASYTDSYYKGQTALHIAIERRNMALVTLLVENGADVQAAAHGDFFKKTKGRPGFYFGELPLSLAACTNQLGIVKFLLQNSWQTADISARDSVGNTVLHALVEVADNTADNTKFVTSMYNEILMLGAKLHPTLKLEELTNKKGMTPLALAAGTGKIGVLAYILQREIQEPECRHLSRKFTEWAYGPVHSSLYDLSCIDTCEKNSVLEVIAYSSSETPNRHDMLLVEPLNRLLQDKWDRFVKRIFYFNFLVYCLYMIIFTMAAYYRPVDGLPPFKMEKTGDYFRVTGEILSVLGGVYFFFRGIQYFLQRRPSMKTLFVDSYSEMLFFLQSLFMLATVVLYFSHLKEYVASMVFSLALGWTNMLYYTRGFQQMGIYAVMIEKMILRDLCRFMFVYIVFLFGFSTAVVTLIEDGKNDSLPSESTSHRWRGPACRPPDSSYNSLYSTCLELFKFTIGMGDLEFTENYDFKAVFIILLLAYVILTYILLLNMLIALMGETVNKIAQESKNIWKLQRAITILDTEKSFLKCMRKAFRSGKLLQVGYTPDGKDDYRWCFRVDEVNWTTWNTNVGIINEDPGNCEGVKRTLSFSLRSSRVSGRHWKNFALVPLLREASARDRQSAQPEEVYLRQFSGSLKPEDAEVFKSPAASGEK
# Method: 1. Receptor Binding Assay Using VR1 Stably Expressing Cell
# 1) Construction of Human VR1 Stably Expressing Cell
# A complete length cDNA coding for human VR1 was obtained by the following method. Firstly, a first strand cDNA was synthesized by carrying out reverse transcription of human brain mRNA using a reverse transcriptase. Next, PCR by Hot Start method was carried out using this first strand cDNA as the template and using Taq DNA polymerase. In the aforementioned PCR, an oligonucleotide consisting of the 424th to 443rd nucleotide sequence of a conventionally known human VR1 cDNA sequence (Genbank AJ277028.1) was used as the sense primer, and an oligonucleotide consisting of a complementary chain sequence of the 3082nd to 3100th nucleotide sequence as the antisense primer, and thermal denaturation was firstly carried out at 98° C. (1 minute) and then a cycle consisting of 98° C. (15 seconds)/63° C. (30 seconds)/72° C. (3 minutes) was repeated 35 times.
# Cloning of the thus amplified DNA fragment was carried out using pCR-XL-TOPO vector (TOPO XL PCR Cloning Kit; Invitrogen, USA). The human VR1-cDNA alone was isolated by digesting the resulting plasmid DNA with a restriction enzyme EcoRI and then integrated into pcDNA3.1 (+) plasmid (Invitrogen, USA). In this case, the above genetic engineering operations were carried out by conventionally known methods (Sambrook, J. et al., “Molecular Cloning—A Laboratory Manual”, Cold Spring Harbor Laboratory Press, NY, 2001) and in accordance with the instructions attached to respective reagents.
# Next, the resulting pcDNA3.1-VR1 was transferred into HEK 293 cell. By selecting VR1/HEK 293 cells using DMEM medium (Invitrogen, USA) containing 10% FBS, 100 μg/ml streptomycin, 100 U/ml penicillin and 400 μg/ml G 418, a receptor stably expressing cell strain was prepared. The receptor stably expressing cell was sub-cultured in the medium described in the above.
# 2) Preparation of Membrane Sample
# The VR1/HEK 293 cell described in the above was mass-produced in a dish and then, after discarding the medium, scraped out after adding ice-cooled PBS. Centrifugation was carried out at 1000 rpm and at 4° C. for 10 minutes, and the resulting residue was homogenized by adding a homogenization buffer (25 mM Tris-HCl, 220 mM sucrose, pH 7.4) and centrifuged at 2,200 rpm and at 4° C. for 10 minutes. The resulting supernatant was centrifuged at 30,000×g and at 4° C. for 20 minutes and the resulting residue was mixed with 25 mM Tris-HCl, pH 7.4, and centrifuged at 30,000×g and at 4° C. for 20 minutes, and this operation was repeated twice. The resulting residue was suspended in 25 mM Tris-HCl, pH 7.4, and the protein concentration was determined using a protein assay staining solution (Bio-Rad, USA). The thus prepared membrane sample was stored at −80° C.
# 3) Receptor Binding Assay
# This was carried out by modifying the method of [Neurosci., 57: 747-757 (1993)]. As the assay buffer, 25 mM Tris-HCl, 0.025% BSA, pH 7.4 was used. Each test compound, [^3H]RTX 50 μl (about 50,000 dpm; Perkin Elmer Life Science, USA) and the aforementioned membrane sample (protein quantity about 25 μg) were suspended in a microplate to a total volume of 300 μl, incubated at 37° C. for 60 minutes and then incubated on ice for 10 minutes. A 200 μg/50 μl portion of an ice-cooled α1 acid glycoprotein (AGP; Sigma) was added thereto and further incubated for 5 minutes. Completion of the incubation was carried out by rapid filtration of the reaction liquid using a GF/B filter (Perkin Elmer Life Science, USA). After 7 times of washing with ice-cooled 25 mM Tris-HCl buffer (pH 7.4), radioactivity of the filter was measured by a liquid scintillation counter. Regarding the specific binding, a part substituted by 1 μM of RTX among the total binding of [^3H]RTX with the VR1 receptor stably expressing cell membrane fraction was regarded as the specific binding originated from the VR1 receptor. Evaluation of test compounds was carried out in the following manner. […]
# mouse (ddY, male) = test: Capsaicin test (capsaicin-induced paw-licking behavior); type: in vivo; settings: oral administration 45 minutes before 1.6 μg capsaicin to planta; 5 minutes observation; vehicle group = 100%
# Method: Inhibitory action on pain behavior of the compounds as the active ingredients of the pharmaceutical preparations of the present invention was evaluated in accordance with the method described in a reference [Neuropharmacol., 31: 1279-1285 (1992)]. That is, when 1.6 μg of capsaicin is administered to a planta of a mouse (ddY, male, 4 to 5 weeks of age), it induces paw-licking behavior. The pain behavior suppressing action was evaluated by measuring the paw-licking behavior expressing time during 5 minutes after the administration. Each test compound was orally administered 45 minutes before the administration of capsaicin. Evaluation of the test compounds was carried out by calculating each inhibition rate of the test compound administration group when the paw-licking behavior expressing time of the vehicle administration group was regarded as 100%.
# human VR1 [2] = target: T1, human VR1; test: Inhibitory activity on capsaicin-induced electric current, whole cell patch clamp, VR1 receptor-expressed HEK 293 cells; type: cell-based; settings: capsaicin 1 μM, voltage-clamped, read-out: IC50 value, inhibition of capsaicin-induced current response
# Method: 2. Measurement of Inhibitory Activity on Capsaicin-Induced Electric Current Using VR1 Stably Expressing Cell
# The VR1 receptor-expressed HEK 293 cells prepared in the aforementioned Test Example 1 were inoculated onto a poly-D-lysine-coated cover glass to a density of from 1 to 1.5×10^4 cells/cm^2. This was allowed to stand still in a CO2 incubator (37° C., 5% CO2) and used in this test after a lapse of from 3 to 15 hours.
# By recording whole cell patch clamp for the VR1 receptor-expressed HEK 293 cells under a voltage-clamped condition, the current response induced by topically applying capsaicin (1 μM) to the vicinity of the cells was measured. Test compounds were dissolved in an extracellular liquid and applied to a chamber by multi-barrel. Composition (mM) of the extracellular solution was set to NaCl 145, CsCl 5, CaCl2 1, MgCl2 1, HEPES 10 and glucose 10 [pH=7.3]. Composition (mM) of the intracellular solution was set to CsCl 120, MgCl2 2, HEPES 10, BAPTA 10, Na2 GTP 0.2, Mg ATP 4 and phosphorcreatine Na2 4 [pH=7.2]. By defining the current response of capsaicin in the absence of test compound as 100% and continuously applying each test compound starting from a lower concentration, inhibition rate at each concentration was measured. The IC50 value was calculated by nonlinear recursion from respective inhibition rate.
# rat (SD, male) = test: Spinal nerve ligation model test (von Frey hair test); type: in vivo; settings: L5/L6 spinal nerve ligated rat, oral administration 60 minutes before evaluation
# Method: 4. Spinal Nerve Ligation Model Test
# Inhibitory action on pain behavior of the compounds as the active ingredients of the pharmaceutical preparations of the present invention was evaluated in accordance with the method described in a reference [Pain, 50: 355-363 (1992)]. Under pentobarbital anesthesia, the lumbar skin and muscle of a rat (SD, male, 5 to 6 weeks of age) were incised and the lumber nerve was exposed by removing the transverse process of lumbar vertebra L 6. The L 5 and L 6 spinal nerves were ligated with a silk thread and then the wound was sutured. The treatment was applied to the left side.
# The drug effect evaluation was carried out after 7 to 15 days of the operation. Pain threshold for mechanical stimulus was examined by the von Frey hair (VFH) test.
# Individuals having lowered pain threshold were selected in advance by the VFH test on the day before the drug effect evaluation and divided into groups in such a manner that difference in the average threshold value between respective groups becomes small.
# The test compounds were orally administered 60 minutes before the drug effect evaluation. […]
SMILES,IC50 (human VR1 [1]),"inhibition rate of paw-licking behavior expressing time (mouse (ddY, male))",other results
CN1C(=O)CCc2ccc(NC(=O)c3ccc(Cl)cc3N[C@H]3CCCC[C@@H]3N3CCCC3)cc21 [Example 54],–,34%,–
CN1C(=O)CCc2ccc(NC(=O)c3ccc(Cl)cc3NN3CCCCC3)cc21 [Example 119],45 nM,–,–
"C[C@H]1Oc2ccc(NC(=O)c3ccc(Cl)cc3N[C@@H]3CCCC[C@@H]3N3CCCC3)cc2NC1=O [Example 106, 4-chloro-N-[(2R)-2-methyl-3-oxo-3,4-dihydro-2H-benzoxazin-6-yl]-2-{[(1R,2S)-2-pyrrolidin-1-ylcyclohexyl]amino}benzamide hydrochloride]",52 nM,–,–
CC1Oc2ccc(NC(=O)c3ccc(C(F)(F)F)cc3NC3CCCCC3)cc2NC1=O (stereo not drawn) [Example 73],–,95%,–
CN1C(=O)CCc2ccc(NC(=O)c3ccc(C(F)(F)F)cc3N[C@H]3CCCC[C@@H]3N3CCC(C)(C)C3)cc21 [Example 170],2.6 nM,–,–
"Cc1nc2cc(NC(=O)c3ccc(C(F)(F)F)cc3N[C@H]3CCCC[C@@H]3N(C)C)ccc2s1 [Example 108, 2-{[(1S,2S)-2-(dimethylamino)cyclohexyl]amino}-N-(2-methyl-1,3-benzothiazol-5-yl)-4-(trifluoromethyl)benzamide hydrochloride]",19 nM,–,–
"CN1C(=O)CCc2ccc(NC(=O)c3ccc(Cl)cc3NC3CCCC3)cc21.Cl [Example 1, 4-chloro-2-(cyclopentylamino)-N-(1-methyl-2-oxo-1,2,3,4-tetrahydroquinolin-7-yl)benzamide hydrochloride]",12 nM,45%,–
CCC(CC)Nc1cc(Cl)ccc1C(=O)Nc1ccc2c(c1)N(C)C(=O)CC2 [Example 17],5.8 nM,54%,–
"O=C(Nc1ccc2c(c1)N(CCO)C(=O)CC2)c1ccc(C(F)(F)F)cc1NC1CCCCC1 [Example 105, 2-(cyclohexylamino)-N-[1-(2-hydroxyethyl)-2-oxo-1,2,3,4-tetrahydroquinolin-7-yl]-4-(trifluoromethyl)benzamide]",4.2 nM,–,–
"Cl.O=C1Cc2c(cc(NC(=O)c3ccc(C(F)(F)F)cc3N[C@H]3CCCC[C@@H]3N3CCCC3)cc2C(F)(F)F)N1 [Example 107, N-[2-oxo-4-(trifluoromethyl)-2,3-dihydro-1H-indol-6-yl]-2-{[(1S,2S)-2-pyrrolidin-1-ylcyclohexyl]amino}-4-(trifluoromethyl)benzamide hydrochloride]",13 nM,53%,"IC50 (human VR1 [2]): 8.8 nM; pain threshold for mechanical stimulus of the operation side leg (VFH test) (rat (SD, male)): completely restored the threshold value of the operation side leg to the threshold value range of the non-operation side leg"

# Second part, led by results:
IC50 (human VR1 [1]),SMILES,"inhibition rate of paw-licking behavior expressing time (mouse (ddY, male))",other results
87 nM,CCCCN1CCC(Nc2cc(C(F)(F)F)ccc2C(=O)Nc2ccc3c(c2)NC(=O)C3(C)C)CC1 [Example 335],49%,–
60 nM,CN1C(=O)CCc2ccc(NC(=O)c3cc(Cl)cnc3NCC3CC3)cc21 [Example 400],–,–
18 nM,O=C(Nc1ccc2cccnc2c1)c1ccc(C(F)(F)F)cc1N[C@H]1CCCC[C@@H]1N1CCCC1 [Example 386],–,–
62 nM,CN1C(=O)CCc2ccc(NC(=O)c3ccc(C(F)(F)F)cc3Nc3cccnc3)cc21 [Example 178],–,–
5.6 nM,CN1C(=O)CCc2ccc(NC(=O)c3ccc(C(F)(F)F)cc3NC3(CN4CCCC4)CCCCC3)cc21 [Example 173],–,–
9.8 nM,COCCNc1cc(C(F)(F)F)ccc1C(=O)Nc1ccc2sc(C)nc2c1 [Example 307],–,–
8.9 nM,CN1C(=O)CCc2ccc(NC(=O)c3ccc(C(F)(F)F)cc3N[C@@H]3CCCC[C@H]3OCc3ccccc3)cc21 [Example 176],–,–
23 nM,CCCCCN1CC[C@H](Nc2cc(C(F)(F)F)ccc2C(=O)Nc2ccc3c(c2)NC(=O)C3(C)C)C1 [Example 334],58%,–
31 nM,CC1(C)C(=O)Nc2cc(NC(=O)c3ccc(C(F)(F)F)cc3N[C@H]3CCCC[C@@H]3N3CCCC3)ccc21 [Example 248],–,–
15 nM,O=C(Nc1ccc2cccnc2c1)c1ccc(C(F)(F)F)cc1N[C@H]1CCCC[C@H]1N1CCCC1 [Example 367],–,–
25 nM,Cc1nc2cc(NC(=O)c3ccc(C(F)(F)F)cc3NCc3ccncc3)ccc2s1 [Example 321],67%,–
3.7 nM,CC(C)CN1CCC(Nc2cc(C(F)(F)F)ccc2C(=O)Nc2ccc3c(c2)NC(=O)C3(C)C)CC1 [Example 327],–,–
